Values belong to the compound of their own block, whether it stands above or below them.
Assays:
[1] = test system: 17beta-HSD3 (Rattus norvegicus); experiment: Inhibition of 17beta-HSD3 at 100 uM
[2] = target: 17beta-HSD3 (Rattus norvegicus); experiment: Inhibition of 17beta-HSD3

Structure (SMILES): CCCCCCCCCCCC(=O)c1ccc(O)cc1
inhibition [1]: 78.9% | IC50 [2]: 7.55 µM

Structure (SMILES): CCCCCC(=O)c1ccc(O)cc1
inhibition [1]: 76.4% | IC50 [2]: 18 µM

Structure (SMILES): CCCCCCCCCC(=O)c1ccc(O)cc1
inhibition [1]: 81.4% | IC50 [2]: 4.97 µM

Other lines, results leading:

inhibition [1]: 80.3% | IC50 [2]: 7.84 µM
Structure (SMILES): CCCCCCC(=O)c1ccc(O)cc1

inhibition [1]: 82.6% | IC50 [2]: 6.52 µM
Structure (SMILES): CCCCCCCC(=O)c1ccc(O)cc1
